Source: the METLIN SMRT retention time set (Domingo-Almenara et al. 2019)

Assay: gradient 5% acetonitrile 3 min, to 50% in 2 min, to 85% in 15 min, held 3 min, 100 µL/min
Details: column: Zorbax Extend-C18 2.1 x 50 mm; eluents: water / acetonitrile, 0.1% formic acid
Outline: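 The mobile phases were water and acetonitrile, each with 0.1% formic acid, pumped at 100 μL/min through a Zorbax Extend-C18 column (2.1 × 50 mm, 1.8 μm). Pure standards were injected as mixtures of ~100 molecules and detected by a quadrupole time-of-flight mass spectrometer in positive and negative ionization mode. Retention time came from computationally picked adduct peaks, each inspected by hand.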

Structure (SMILES) | RP-LC retention time
CCOC(=O)c1csc(NC(=O)c2ccc3c(c2)OCCO3)n1 | 782 s
O=C(NCCN1CCN(C(=O)c2ccc(Br)cc2)CC1)C(=O)NCc1ccco1 | 626 s
O=S(=O)(Nc1cccc(-c2nc(-c3cccc(Br)c3)co2)c1)c1cccs1 | 1230 s
Cc1cc(-c2cc(S(=O)(=O)N3CCC(Cc4ccccc4)CC3)c(C)s2)n[nH]1 | 1090 s
COc1ccc(NC(=O)Cc2nnc(-c3ccc4ncccc4c3)o2)cc1 | 685 s
COc1ccc(C(=O)N2CCC3(CC2)NC(=O)c2cc(C)ccc2N3C)c(OC)c1 | 754 s
Cn1ncc2c3ccccc3n(CCCC(=O)NCCCN3CCN(c4ccccc4)CC3)c2c1=O | 672 s
O=C(Nc1ccc(-c2nc(-c3ccccc3)no2)cc1)c1ccc(Br)o1 | 1180 s
CCOc1ccc(Cl)cc1S(=O)(=O)N1CCC(C(=O)NCc2ccc3c(c2)OCO3)CC1 | 922 s
COc1cc(Cl)c(NS(=O)(=O)c2c(C)sc(C)c2-c2cc(C(F)(F)F)on2)c(OC)c1 | 1190 s
c1ccc(-c2nc(-c3cccc(-c4ccn[nH]4)c3)no2)nc1 | 739 s
O=C(NCc1ccc2c(c1)OCO2)C1CCc2nc(N3CCCC3)ncc2C1 (centres undefined) | 631 s
CCCNC(=O)c1cn(-c2ccc(NC(=O)CC)cn2)cn1 | 636 s
CC(NC(=O)c1sc2ncccc2c1-n1cccc1)c1ccc(F)cc1 (centres undefined) | 1070 s
CC(C)(C)c1nnc2n(c1=O)N=C(c1ccc(F)cc1)CS2 | 857 s
CC(C)c1cc(C(=O)Nc2ccc(Cl)cc2)nc2ccnn12 | 1060 s
COc1ccc(-c2ncccc2CNS(=O)(=O)c2ccc(C#N)cc2)cc1 | 673 s
COc1ccc(NC(=O)CSc2nnc3c4sc(N5CCCC5)nc4ncn23)cc1Cl | 798 s
COc1ccccc1N1C=C(C#N)S(=O)(=O)c2ccccc21 | 871 s

Structure (SMILES) | RP-LC retention time
CCOc1ccc(NC(=O)Cc2nnc3ccc(C(=O)Nc4ccccc4)cn23)cc1 | 798 s
CCC(C)NC(=O)Cn1nc2c3cc(-c4ccc(Cl)cc4)nn3ccn2c1=O (centres undefined) | 868 s
CCCCOc1ccc(S(=O)(=O)Nc2ccc(-c3cn4ccc(C)nc4n3)cc2)cc1 | 776 s
Cc1ccc(-n2c(C)c(C)c3c(=O)n(CC(=O)NC4CC4)cnc32)cc1 | 769 s
COc1cc2ncc(C#N)c(N3CCC(C(=O)Nc4cccc(Cl)c4)CC3)c2cc1OC | 816 s
COc1ncc(C(=O)N2CCCCC2)cn1 | 628 s
Cc1cc(C(=O)NCc2ccc(F)cc2)nc2cc(-c3cccs3)nn12 | 1090 s
Cc1ccccc1CNC(=O)Cn1c(=O)c2nncn2c2ncccc21 | 662 s
Cc1noc(C)c1CCC(=O)NCCOc1ccc2nnc(-c3cccc(F)c3)n2n1 | 633 s
CSc1ccc(C2c3[nH]c4ccccc4c3CCN2C(=O)c2ccco2)cc1 (centres undefined) | 1140 s
CCOc1ccccc1NC(=O)COc1nc(CC)nc2ccccc12 | 884 s
Cc1[nH]c(C(=O)N2CCC(CC(=O)N3CCCCCC3)CC2)c(C)c1C(=O)OC(C)C | 879 s
CCN1C(=O)c2cc(C(=O)Nc3ccc(C)cc3C)nn2CC1(C)C(=O)NC1CCCC1 (centres undefined) | 800 s
O=C(Nc1ccc2c(c1)OCCO2)C1CCCN(c2nnc3c(Cl)cccn23)C1 (centres undefined) | 709 s
Cc1nnc(-c2cc(NC(=O)c3cc(F)ccc3Cl)c(C)s2)o1 | 955 s
Cc1ccc(CNC(=O)CCc2nc(N3CCCCC3)c3c(-c4ccc(F)cc4)noc3n2)o1 | 1030 s
COc1ccc(C2Cn3nnc(-c4nc(-c5ccsc5)no4)c3CO2)cc1 (centres undefined) | 1070 s
O=C(c1cccs1)N1CCC2(CC1)NC(=O)N(Cc1ccc(F)cc1)C2=O | 764 s
COCCn1cc(CC(=O)NC2CCCCC2)c2cccnc21 | 700 s

Results, then the compound that gave them:

RP-LC retention time | Structure (SMILES)
712 s | COc1ccc(C(=O)Nc2ccc3c(c2)Sc2ncccc2C(=O)N3C)cc1OC
640 s | O=C(NCCCN1CCCC1)c1cc2n(n1)CCCN(Cc1ccc(Cl)cc1)C2=O
808 s | CCOC(=O)C1CCN(C(=O)C2COC3(CCCCC3)N2C(=O)c2ccccc2)CC1 (centres undefined)
960 s | Cc1cc(NC(=O)c2cn(C)nc2S(=O)(=O)N2CCSCC2)ccc1F
714 s | COc1cccc(CNS(=O)(=O)c2ccc3c(c2)CCCC(=O)N3)c1
849 s | Cc1ccc(NS(=O)(=O)c2cc3c(=O)n(C)ncn3c2)cc1C
873 s | Cc1cc(NC(=O)CN2C(=O)NC(c3ccc(Cl)cc3)C3=C2COC3=O)ccc1Br (centres undefined)
859 s | CC1=C(c2ccc(F)cc2)S(=O)(=O)N=C1N1CCCN(C(=O)c2cccc(C)c2)CC1
662 s | CC(NC(=O)c1cc(-c2ccccc2)cn1C)c1cccnc1 (centres undefined)
644 s | O=C1C(c2cccnc2)N(c2ccc3c(c2)OCCO3)C(=O)CN1c1ccccc1 (centres undefined)
654 s | Cn1ccc2cc(S(=O)(=O)N3CCCC(C(=O)NCCN4CCCCC4)C3)ccc21 (centres undefined)
555 s | COc1ccc(C(=O)NCc2nc3ccccc3[nH]2)cc1
1270 s | Cc1cc(C)c(S(=O)(=O)N2CCCC2c2nc(-c3cccc(F)c3)no2)c(C)c1 (centres undefined)
827 s | Cc1ccc(NC(=O)Cn2c(=O)n(-c3ccccc3)c(=O)c3c2cc(C)n3C)cc1
608 s | Nc1cc(-c2cccc(F)c2)[nH]n1
824 s | Cc1cc(C2CCCN2C(=O)Cc2ccc(Cl)cc2)no1 (centres undefined)
627 s | CC(=O)c1ccc(NC(=O)N2C[C@@H]3C[C@H](NC(=O)c4cccnc4)[C@H]2C3)cc1
768 s | Cc1ccc2[nH]cc(CCN3CC(C(=O)N4CCCCC4)CC3=O)c2c1 (centres undefined)
591 s | Cc1ccc(S(=O)(=O)N2CCc3nc[nH]c3C2)cc1
825 s | COc1cc(CNC(=O)c2nc(CCS(=O)(=O)c3ccc(C)cc3)no2)cc(OC)c1OC
643 s | CCCc1noc(-c2ccnc(-n3ncc(C(=O)N4CCN(CC)CC4)c3C)c2)n1
603 s | O=C(CC1CCN(C(=O)Nc2ccccc2)CC1)N1CCN(c2ccccn2)CC1
964 s | O=C(O)c1cccc(-c2noc(-c3ccccc3F)n2)c1
798 s | Cc1ccc(N2CCC(NC(=O)Nc3ccc4c(c3)OCCO4)C2=O)cc1C (centres undefined)
586 s | CCc1ccc(NC(=O)C2CCCN(c3ccc(=O)n(-c4ccc(C)c(Cl)c4)n3)C2)cc1 (centres undefined)
653 s | CCCNC(=O)CC1CCN(C(=O)c2c(C)[nH]c(C(=O)OCC)c2C)CC1

RP-LC retention time | Structure (SMILES)
736 s | O=C(NCc1ccc2c(c1)OCO2)c1ccc(OCC(=O)C2CC2)cc1
1090 s | CC(C)c1ccc(-c2ccnc3c(C(=O)NCc4ccco4)cnn23)cc1
800 s | Cc1ccc(NC(=O)C2CCCN2S(=O)(=O)c2cc3c(cc2Cl)NC(=O)CO3)cc1 (centres undefined)
609 s | CCN1C(=O)CN(C(=O)c2ccoc2)CC12CCOCC2
658 s | Cc1ccc(S(=O)(=O)c2ccc(C(=O)N3CCN(c4ccccn4)CC3)cn2)cc1C
749 s | O=C(NCc1ccco1)c1ccc2c(c1)C(=O)c1ccccc1-2
995 s | CCc1cc(C(=O)Nc2cccc(C)c2)nc2ccnn12
813 s | CCCn1nc(CNC(=O)c2cccc3[nH]ccc23)c2ccccc21
681 s | CC(NC(=O)Cc1nnc(-c2cnccn2)o1)c1ccc(F)cc1 (centres undefined)
742 s | COCCNc1c(-c2cccc(F)c2)nc2sc(C(=O)N(C)C)c(C)n12
978 s | O=C(Cc1csc(SCc2ccc(Br)cc2)n1)NCc1cccs1
1120 s | Cc1ccc(-c2csc3c(=O)n(CC(=O)N4CCOc5ccc(C)cc54)cnc23)cc1
695 s | c1cc(-c2noc(C3CC3)n2)cc(N2CCOCC2)n1
848 s | CC1Oc2ccc(S(=O)(=O)N3CCC(C(=O)N4CCN(c5ccccc5)CC4)CC3)cc2NC1=O (centres undefined)
856 s | CCOc1ccccc1NC(=O)NCCCn1c(C(F)(F)F)nc2cccnc21
746 s | C=CCNC(=O)c1sc(Nc2ccc(Cl)cn2)nc1C
744 s | COc1ccc(CC(=O)NC(C(=O)Nc2nc3ccccc3[nH]2)C(C)C)c(Cl)c1 (centres undefined)
817 s | O=C(/C=C/c1cccnc1)c1ccccc1O
1060 s | CC1CCN(c2cc(-n3cnc(C(=O)Nc4ccc5c(c4)OCO5)c3)ncn2)CC1
825 s | CN(C)c1cc(-n2cnc(C(=O)NCc3ccc(Cl)cc3)c2)ncn1
679 s | CCOC(=O)C1=C(CN2CCCCCC2)NC(=O)NC1c1ccc(OC(C)C)cc1 (centres undefined)
620 s | CCN1CCCC1CNC(=O)CCC(=O)N1CCCn2nc(-c3cn(C)c4ccccc34)cc21 (centres undefined)
1190 s | CCOc1cccc(-c2noc(Cn3c(=O)n(C(C)C)c(=O)c4ccccc43)n2)c1
680 s | Cn1cnc(S(=O)(=O)N2c3ccccc3CC2c2nnc(C3CCOCC3)o2)c1 (centres undefined)
760 s | Cc1ccsc1CCNC(=O)C1CCN(S(=O)(=O)c2ccc3c(c2)CCCC(=O)N3)CC1
